Source: PubChem BioAssay AID330 (DTP/NCI, 2004)
Where “and” joins values, the source holds several entries; their conditions need not be identical. Equal values may be shown once. Toxic doses and inconclusive results are not listed.

Test system: P388 leukemia ip, CD2F1 mice, survival T/C
Experiment: NCI In Vivo Anticancer Drug Screen. Data for tumor model P388 Leukemia (intraperitoneal) in CD2F1 (CDF1) mice
Conditions: endpoint: median survival time, higher = longer survival
In short: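 Mice carrying the transplanted tumor received test compound or vehicle. Survival was recorded in each group, and the value is the treated-group measurement divided by that of the vehicle-treated control group.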

SMILES: C=C(C)[C@@]12OC3(/C=C/C=C/CCCCC)O[C@@H]1[C@@H]1[C@@H]4O[C@]4(CO)[C@@H](O)[C@]4(O)C(=O)C(C)=C[C@H]4[C@@]1(O3)[C@H](C)[C@H]2OC(=O)c1ccccc1
- T/C (dose: 0.1 mg/kg/injection, schedule: Q01DX009 (ip), vehicle: saline + alcohol): 120 % of control
- T/C (dose: 1.6 mg/kg/injection, schedule: Q01DX009 (ip), vehicle: saline + alcohol): 155 % of control
- T/C (dose: 0.8 micrograms/kg/injection, schedule: Q01DX009 (ip), vehicle: saline + alcohol): 101 % of control
- T/C (dose: 1.6 micrograms/kg/injection, schedule: Q01DX009 (ip), vehicle: saline + alcohol): 101 % of control
- T/C (dose: 2.3 micrograms/kg/injection, schedule: Q01DX009 (ip), vehicle: saline + alcohol): 97 % of control
- T/C (dose: 3.1 micrograms/kg/injection, schedule: Q01DX009 (ip), vehicle: saline + alcohol): 119 % of control
- T/C (dose: 4.7 micrograms/kg/injection, schedule: Q01DX009 (ip), vehicle: saline + alcohol): 100 % of control
- T/C (dose: 9.4 micrograms/kg/injection, schedule: Q01DX009 (ip), vehicle: saline + alcohol): 97 % of control
- T/C (dose: 18.8 micrograms/kg/injection, schedule: Q01DX009 (ip), vehicle: saline + alcohol): 95 % of control
- T/C (dose: 37.5 micrograms/kg/injection, schedule: Q01DX009 (ip), vehicle: saline + alcohol): 100 % of control
- T/C (dose: 75.0 micrograms/kg/injection, schedule: Q01DX009 (ip), vehicle: saline + alcohol): 119 % of control
- T/C (dose: 150.0 micrograms/kg/injection, schedule: Q01DX009 (ip), vehicle: saline + alcohol): 114 % of control

SMILES: COc1cc([N+](=O)[O-])ccc1Nc1c2ccccc2nc2ccccc12
- T/C (dose: 50.0 mg/kg/injection, schedule: Q01DX009 (ip), vehicle: Klucel (hydroxypropylcellulose) (HPC)): 99 % of control
- T/C (dose: 100.0 mg/kg/injection, schedule: Q01DX009 (ip), vehicle: Klucel (hydroxypropylcellulose) (HPC)): 98 % of control
- T/C (dose: 200.0 mg/kg/injection, schedule: Q01DX009 (ip), vehicle: Klucel (hydroxypropylcellulose) (HPC)): 90 % of control

SMILES: CCN(CC)C(=O)C1CCN(Cc2c[nH]c3ccccc23)CC1
- T/C (dose: 25.0 mg/kg/injection, schedule: Q01DX009 (ip), vehicle: saline): 99 % of control
- T/C (dose: 50.0 mg/kg/injection, schedule: Q01DX009 (ip), vehicle: saline): 104 % of control
- T/C (dose: 100.0 mg/kg/injection, schedule: Q01DX009 (ip), vehicle: saline): 107 % of control

SMILES: COc1ccc(C(C)c2cc(C(C)(C)C)c(O)c(C(C)(C)C)c2)cc1 (stereo unspecified)
- T/C (dose: 50.0 mg/kg/injection, schedule: Q01DX005 (ip), vehicle: distilled water + alcohol): 103 % of control
- T/C (dose: 100.0 mg/kg/injection, schedule: Q01DX005 (ip), vehicle: distilled water + alcohol): 100 % of control
- T/C (dose: 200.0 mg/kg/injection, schedule: Q01DX005 (ip), vehicle: distilled water + alcohol): 105 % of control

SMILES: N/N=C1\c2ccccc2-c2cccc(N)c21
- T/C (dose: 60.0 mg/kg/injection, schedule: Q01DX005 (ip), vehicle: saline with Tween-80): 102 % of control
- T/C (dose: 120.0 mg/kg/injection, schedule: Q01DX005 (ip), vehicle: saline with Tween-80): 112 % of control
- T/C (dose: 240.0 mg/kg/injection, schedule: Q01DX005 (ip), vehicle: saline with Tween-80): 99 % of control

SMILES: CC(C(=O)O)n1c(=O)ssc1=O (stereo unspecified)
- T/C (dose: 15.0 mg/kg/injection, schedule: Q01DX005 (ip), vehicle: Klucel (hydroxypropylcellulose) (HPC)): 102 % of control
- T/C (dose: 30.0 mg/kg/injection, schedule: Q01DX005 (ip), vehicle: Klucel (hydroxypropylcellulose) (HPC)): 93 % of control
- T/C (dose: 60.0 mg/kg/injection, schedule: Q01DX005 (ip), vehicle: Klucel (hydroxypropylcellulose) (HPC)): 93 % of control

SMILES: O=C1CC(c2ccccc2)C(c2ccccc2)C1=O (stereo unspecified)
- T/C (dose: 12.5 mg/kg/injection, schedule: Q04DX003 (ip), vehicle: Klucel (hydroxypropylcellulose) (HPC)): 107 % of control
- T/C (dose: 25.0 mg/kg/injection, schedule: Q04DX003 (ip), vehicle: Klucel (hydroxypropylcellulose) (HPC)): 102 % of control
- T/C (dose: 50.0 mg/kg/injection, schedule: Q04DX003 (ip), vehicle: Klucel (hydroxypropylcellulose) (HPC)): 102 % of control

SMILES: CC(C)(C)OC(=O)N(C=O)C(Cc1c[nH]c2ccccc12)C(=O)O (stereo unspecified)
- T/C (dose: 50.0 mg/kg/injection, schedule: Q01DX005 (ip), vehicle: Klucel (hydroxypropylcellulose) (HPC)): 100 % of control
- T/C (dose: 100.0 mg/kg/injection, schedule: Q01DX005 (ip), vehicle: Klucel (hydroxypropylcellulose) (HPC)): 103 % of control
- T/C (dose: 200.0 mg/kg/injection, schedule: Q01DX005 (ip), vehicle: Klucel (hydroxypropylcellulose) (HPC)): 99 % of control

SMILES: CCCC(O)CNCc1ccnc2ccc(OC)cc12 (stereo unspecified)
- T/C (dose: 50.0 mg/kg/injection, schedule: Q01DX005 (ip), vehicle: saline): 109 % of control
- T/C (dose: 100.0 mg/kg/injection, schedule: Q01DX005 (ip), vehicle: saline): 98 % of control

SMILES: C=C(Cl)CSC(=S)N1CCOCC1
- T/C (dose: 50.0 mg/kg/injection, schedule: Q01DX005 (ip), vehicle: saline with Tween-80): 101 % of control and 102 % of control and 96 % of control
- T/C (dose: 100.0 mg/kg/injection, schedule: Q01DX005 (ip), vehicle: saline with Tween-80): 105 % of control and 107 % of control and 109 % of control
- T/C (dose: 200.0 mg/kg/injection, schedule: Q01DX005 (ip), vehicle: saline with Tween-80): 101 % of control and 120 % of control and 97 % of control

SMILES: CC(C)(Cl)C1OC(C(C)(C)Cl)OC(C(C)(C)Cl)O1 (stereo unspecified)
- T/C (dose: 100.0 mg/kg/injection, schedule: Q01DX009 (ip), vehicle: saline with Tween-80): 91 % of control
- T/C (dose: 200.0 mg/kg/injection, schedule: Q01DX009 (ip), vehicle: saline with Tween-80): 94 % of control
- T/C (dose: 400.0 mg/kg/injection, schedule: Q01DX009 (ip), vehicle: saline with Tween-80): 103 % of control
